A value given as a limit tells only on which side of the number the result lay.

The assay relates to HCV. As to the kind of experiment: Assay of anti-HCV activity in HCV-infected Huh7.5 cells (intracellular HCV RNA by one-step quantitative RT-PCR). The class given is cell-based. As to conditions: Hepatitis C virus; compound at 1 μM; Huh7.5 cells infected with HCV; 96 hrs; intracellular HCV RNA vs viral control; read-out: inhibitory activities (inhibitory levels of the compounds against HCV replication). A digest of the protocol: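 Huh7.5 cells were infected with HCV particles while compounds were added at 1 μM, then incubated 96 h at 37 °C, 5% CO2. Intracellular HCV RNA was quantified by one-step qRT-PCR, and inhibition was calculated relative to the viral control.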
For the compound `CCCC(c1ccc(OC)cc1)N1CCN(Cc2cc(N3CCCN(C)CC3)ccc2C(F)(F)F)CC1` (stereo not shown) [Compound 5, 1-(3-((4-(1-(4-methoxyphenyl)butyl)piperazin-1-yl)methyl)-4-(trifluoromethyl)phenyl)-4-methyl-1,4-diazepane], the inhibition at 1 µM is > 75%.
As for `Cc1ccc(C(c2ccc(C)cc2)N2CCN(Cc3cc(N4CCCN(C)CC4)ccc3C(F)(F)F)CC2)cc1` [Compound 45, 1-(3-((4-(bis(4-methylphenyl)methyl)piperazin-1-yl)methyl)-4-(trifluoromethyl)phenyl)-4-methyl-1,4-diazepane], the inhibition at 1 µM is > 75%.
The same measure for `CCN1CCCC1CN(C)c1ccc(C(F)(F)F)c(CN2CCN(c3ccc(Cl)cc3)CC2)c1` (stereo not shown) [Compound 25, 3-((4-(4-chlorophenyl)piperazin-1-yl)methyl)-N-((1-ethylpyrrolidin-2-yl)methyl)-N-methyl-4-(trifluoromethyl)aniline]: > 75%; for `CC1CN(c2ccc(Cl)c(C(F)(F)F)c2)CCN1Cc1cc(N2CCCN(C)CC2)ccc1C(F)(F)F` (stereo not shown) [Compound 32, 1-(3-((4-(4-chloro-3-(trifluoromethyl)phenyl)-2-methylpiperazin-1-yl)methyl)-4-(trifluoromethyl)phenyl)-4-methyl-1,4-diazepane]: > 75%.

The values above are taken from patent US11939307B2, “Phenylmethyl-piperazine derivatives and antiviral uses thereof” (INSTITUTE OF MEDICINAL BIOTECHNOLOGY, CHINESE ACADEMY OF …, priority 2019, dated 2024).
